Assay results: ChEMBL document CHEMBL1201862, “PubChem BioAssay data set” (2004)
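A five-concentration, 48-hour dose response in 96-well plates underlies each endpoint, interpolated linearly between surrounding concentrations. Here, GI50 denotes the concentration required for 50% inhibition of growth.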 Active and inactive are the calls of the source. No stated cut-off is given here; in the data, active = GI50 up to about 1.1 µM and inactive = higher.

Columns and labels:
Experiment in all cases: NCI anticancer screen, dose series, 48 h
[1] = test system: SF-268
[2] = test system: U-251
[3] = test system: OVCAR-8
[4] = test system: IGROV-1
[5] = test system: M14
[6] = test system: SF-295
[7] = test system: SNB-75
[8] = test system: SK-OV-3
[9] = test system: HOP-62
[10] = test system: MOLT-4
[11] = test system: A549
[12] = test system: SW-620
[13] = test system: ACHN
[14] = test system: OVCAR-4
[15] = test system: HCT-116
[16] = test system: SK-MEL-5
[17] = test system: NCI-H522
[18] = test system: NCI-H460
[19] = test system: NCI-H23
[20] = test system: SN12C

SMILES	GI50 [1]	GI50 [2]	GI50 [3]	GI50 [4]	GI50 [5]	GI50 [6]	GI50 [7]	GI50 [8]	GI50 [9]	GI50 [10]	GI50 [11]	GI50 [12]	GI50 [13]	GI50 [14]	GI50 [15]	GI50 [16]	GI50 [17]	GI50 [18]	GI50 [19]	GI50 [20]
CN(NC(=O)c1cccs1)C1=NCCCN1	> 100 µM (inactive)	> 100 µM (inactive)	> 100 µM (inactive)	> 100 µM (inactive)	> 100 µM (inactive)	> 100 µM (inactive)	> 100 µM (inactive)	> 100 µM (inactive)	> 100 µM (inactive)	> 100 µM (inactive)	> 100 µM (inactive)	> 100 µM (inactive)	> 100 µM (inactive)	> 100 µM (inactive)	> 100 µM (inactive)	> 100 µM (inactive)	> 100 µM (inactive)	> 100 µM (inactive)	> 100 µM (inactive)	–
CC(C)(Br)C1(O)CCCN1C(=O)c1ccccc1 (stereo not drawn)	> 100 µM (inactive)	> 100 µM (inactive)	> 100 µM (inactive)	> 100 µM (inactive)	> 100 µM (inactive)	25.1 µM (inactive)	97.5 µM (inactive)	> 100 µM (inactive)	–	> 100 µM (inactive)	> 100 µM (inactive)	> 100 µM (inactive)	> 100 µM (inactive)	–	> 100 µM (inactive)	> 100 µM (inactive)	> 100 µM (inactive)	> 100 µM (inactive)	> 100 µM (inactive)	> 100 µM (inactive)
COc1cccc(C2C(C(=O)O)=C(CO)Oc3cc4c(cc32)OCO4)c1 (stereo not drawn)	> 100 µM (inactive)	> 100 µM (inactive)	> 100 µM (inactive)	> 100 µM (inactive)	> 100 µM (inactive)	> 100 µM (inactive)	> 100 µM (inactive)	> 100 µM (inactive)	–	> 100 µM (inactive)	–	> 100 µM (inactive)	> 100 µM (inactive)	–	–	> 100 µM (inactive)	> 100 µM (inactive)	> 100 µM (inactive)	> 100 µM (inactive)	> 100 µM (inactive)
C=CS(=O)(=O)CCN1CC1	> 10 µM (inactive)	> 10 µM (inactive)	> 10 µM (inactive)	> 10 µM (inactive)	> 10 µM (inactive)	> 10 µM (inactive)	> 10 µM (inactive)	> 10 µM (inactive)	> 10 µM (inactive)	> 10 µM (inactive)	> 10 µM (inactive)	> 10 µM (inactive)	> 10 µM (inactive)	> 10 µM (inactive)	> 10 µM (inactive)	> 10 µM (inactive)	> 10 µM (inactive)	–	> 10 µM (inactive)	> 10 µM (inactive)
C=COCCCOc1ccccc1	> 100 µM (inactive)	> 100 µM (inactive)	> 100 µM (inactive)	0.145 µM (active)	> 100 µM (inactive)	–	–	–	> 100 µM (inactive)	> 100 µM (inactive)	> 100 µM (inactive)	> 100 µM (inactive)	> 100 µM (inactive)	> 100 µM (inactive)	> 100 µM (inactive)	> 100 µM (inactive)	> 100 µM (inactive)	> 100 µM (inactive)	> 100 µM (inactive)	> 100 µM (inactive)
COc1ccc(CC2CCc3nc(N)nc(N)c3C2)cc1OC (stereo not drawn)	0.173 µM (active)	38.6 µM (inactive)	14.6 µM (inactive)	0.11 µM (active)	0.851 µM (active)	0.168 µM (active)	1.46 µM (inactive)	–	13.7 µM (inactive)	0.522 µM (active)	0.0481 µM (active)	6.03 µM (inactive)	0.16 µM (active)	> 43.3 µM (inactive)	0.0349 µM (active)	0.4 µM (active)	0.489 µM (active)	0.0411 µM (active)	0.564 µM (active)	22.9 µM (inactive)
